Laboratory results: ChEMBL document CHEMBL1201862, “PubChem BioAssay data set” (2004)
Values joined by “and” are separate entries in the source; they are usually repeats but may differ in a detail not shown here. Equal entries are not always repeated.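 Compound exposure: 48 hours, 5 concentrations, 96-well plates. GI50 = concentration required for 50% inhibition of growth.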 Active and inactive are the calls of the source. Cut-off read from the data, not from the text of the source: active = GI50 up to about 1.1 µM and inactive = higher.

Key:
Assay in all cases: growth of human tumour cells (NCI), 48 h
MOLT-4 = system: MOLT-4
K562 = system: K562
T47D = system: T47D
HCT-15 = system: HCT-15
SR = system: SR
SN12C = system: SN12C
EKVX = system: EKVX
KM12 = system: KM12
RXF 393 = system: RXF 393
PC-3 = system: PC-3
TK-10 = system: TK-10
OVCAR-8 = system: OVCAR-8
SK-MEL-5 = system: SK-MEL-5
HL-60 = system: HL-60
M14 = system: M14
MCF7 = system: MCF7
HCC 2998 = system: HCC 2998
Malme-3M = system: Malme-3M
CCRF-CEM = system: CCRF-CEM
RPMI-8226 = system: RPMI-8226
HOP-62 = system: HOP-62
MDA-N = system: MDA-N
MDA-MB-231 = system: MDA-MB-231
IGROV-1 = system: IGROV-1
UACC-257 = system: UACC-257
CAKI-1 = system: CAKI-1
SW-620 = system: SW-620
SK-OV-3 = system: SK-OV-3
SF-268 = system: SF-268
SF-295 = system: SF-295
DU-145 = system: DU-145
UACC-62 = system: UACC-62
NCI-H23 = system: NCI-H23
A549 = system: A549
HT-29 = system: HT-29
SK-MEL-28 = system: SK-MEL-28
COLO 205 = system: COLO 205
SNB-75 = system: SNB-75
786-0 = system: 786-0
Hs-578T = system: Hs-578T
U-251 = system: U-251
ACHN = system: ACHN
OVCAR-3 = system: OVCAR-3
NCI-H522 = system: NCI-H522
HCT-116 = system: HCT-116
SK-MEL-2 = system: SK-MEL-2
NCI-H226 = system: NCI-H226
A498 = system: A498
OVCAR-5 = system: OVCAR-5
NCI-H460 = system: NCI-H460
SF-539 = system: SF-539

Structure (SMILES) | GI50 (MOLT-4) | GI50 (K562) | GI50 (HCT-15) | GI50 (SR) | GI50 (SN12C) | GI50 (EKVX) | GI50 (KM12) | GI50 (PC-3) | GI50 (TK-10) | GI50 (OVCAR-8) | GI50 (SK-MEL-5) | GI50 (HL-60) | GI50 (MCF7) | GI50 (HCC 2998) | GI50 (Malme-3M) | GI50 (CCRF-CEM) | GI50 (RPMI-8226) | GI50 (HOP-62) | GI50 (UACC-257) | GI50 (SW-620) | also measured
COc1ccc(C2c3c(-c4ccccc4)nn(-c4ccccc4)c3Oc3ncn4nc(CC#N)nc4c32)cc1OC (stereo not given) | > 100 µM (inactive) | 22.6 µM (inactive) and > 23.7 µM (inactive) | 14 µM and 20.3 µM | 5.57 µM (inactive) | 15 µM (inactive) and > 20.1 µM (inactive) | 7.89 µM (inactive) |  |  |  |  |  |  |  |  |  |  |  |  |  |  | GI50 (T47D): 10.1 µM (inactive)
CC1OC(c2ccc3c(OCc4ccccc4)cccc3c2O)CC(OCc2ccccc2)[C@H]1OCc1ccccc1 (stereo not given in full) | > 10 µM (inactive) | > 10 µM (inactive) | > 10 µM |  | > 10 µM (inactive) | > 10 µM (inactive) | > 10 µM (inactive) | > 10 µM (inactive) | > 10 µM (inactive) | > 10 µM (inactive) | > 10 µM (inactive) | > 10 µM (inactive) | > 10 µM (inactive) | > 10 µM (inactive) | > 10 µM (inactive) | > 10 µM (inactive) | > 10 µM (inactive) | > 10 µM (inactive) | > 10 µM (inactive) | > 10 µM (inactive) | GI50 (RXF 393): > 10 µM (inactive); GI50 (M14): > 10 µM (inactive); GI50 (MDA-N): > 10 µM (inactive); GI50 (MDA-MB-231): > 10 µM (inactive); GI50 (IGROV-1): > 10 µM (inactive); GI50 (T47D): > 10 µM (inactive); GI50 (CAKI-1): > 10 µM (inactive); GI50 (SK-OV-3): > 10 µM (inactive); GI50 (SF-268): > 10 µM (inactive); GI50 (SF-295): > 10 µM (inactive); GI50 (DU-145): > 10 µM (inactive); GI50 (UACC-62): > 10 µM (inactive); GI50 (NCI-H23): > 10 µM (inactive); GI50 (A549): > 10 µM (inactive); GI50 (HT-29): > 10 µM (inactive); GI50 (SK-MEL-28): > 10 µM (inactive); GI50 (COLO 205): > 10 µM (inactive); GI50 (SNB-75): > 10 µM (inactive); GI50 (786-0): > 10 µM (inactive)
Cc1ncc([N+](=O)[O-])n1CC(O)Cn1cnc([N+](=O)[O-])n1 (stereo not given) | > 100 µM (inactive) | > 100 µM (inactive) | > 100 µM | > 100 µM (inactive) | > 100 µM (inactive) | > 100 µM (inactive) | > 100 µM (inactive) | > 100 µM (inactive) | > 10 µM (inactive) | > 100 µM (inactive) | > 100 µM (inactive) | 64.1 µM (inactive) | > 100 µM (inactive) | > 100 µM (inactive) | 55.1 µM (inactive) | > 100 µM (inactive) | > 100 µM (inactive) | > 100 µM (inactive) | > 100 µM (inactive) | > 100 µM (inactive) | GI50 (Hs-578T): > 100 µM (inactive); GI50 (U-251): > 100 µM (inactive); GI50 (ACHN): > 100 µM (inactive); GI50 (OVCAR-3): > 100 µM (inactive); GI50 (NCI-H522): > 100 µM (inactive); GI50 (HCT-116): > 100 µM (inactive); GI50 (SK-MEL-2): > 100 µM (inactive); GI50 (NCI-H226): > 100 µM (inactive); GI50 (A498): 2.84 µM (inactive); GI50 (OVCAR-5): > 100 µM (inactive); GI50 (NCI-H460): > 100 µM (inactive); GI50 (SF-539): > 100 µM (inactive); GI50 (SF-268): > 100 µM (inactive); GI50 (SF-295): > 100 µM (inactive); GI50 (NCI-H23): > 100 µM (inactive); GI50 (A549): > 100 µM (inactive); GI50 (HT-29): > 100 µM (inactive); GI50 (SK-MEL-28): > 100 µM (inactive); GI50 (SNB-75): > 100 µM (inactive); GI50 (786-0): > 100 µM (inactive)
O=C(CCCn1cnc([N+](=O)[O-])n1)NCCCn1ccnc1[N+](=O)[O-] | > 100 µM (inactive) | > 100 µM (inactive) | > 100 µM | > 100 µM (inactive) | > 100 µM (inactive) | > 100 µM (inactive) | > 100 µM (inactive) | > 100 µM (inactive) | 99.8 µM (inactive) | > 100 µM (inactive) | 61.8 µM (inactive) | 78.9 µM (inactive) | > 100 µM (inactive) | > 100 µM (inactive) | 83.2 µM (inactive) | > 100 µM (inactive) | > 100 µM (inactive) | > 100 µM (inactive) | > 100 µM (inactive) | 68.2 µM (inactive) | GI50 (Hs-578T): > 100 µM (inactive); GI50 (U-251): > 100 µM (inactive); GI50 (ACHN): > 100 µM (inactive); GI50 (OVCAR-3): > 100 µM (inactive); GI50 (NCI-H522): > 100 µM (inactive); GI50 (HCT-116): > 100 µM (inactive); GI50 (SK-MEL-2): 32.4 µM (inactive); GI50 (NCI-H226): > 100 µM (inactive); GI50 (A498): 9.35 µM (inactive); GI50 (OVCAR-5): > 100 µM (inactive); GI50 (NCI-H460): > 100 µM (inactive); GI50 (SF-539): > 100 µM (inactive); GI50 (SF-268): > 100 µM (inactive); GI50 (SF-295): > 100 µM (inactive); GI50 (NCI-H23): > 100 µM (inactive); GI50 (A549): > 100 µM (inactive); GI50 (HT-29): > 100 µM (inactive); GI50 (SK-MEL-28): > 100 µM (inactive); GI50 (SNB-75): > 100 µM (inactive); GI50 (786-0): > 100 µM (inactive)
